Reference: PMC6478823, “A suite of phenotypic assays to ensure pipeline diversity when prioritizing drug-like Cryptosporidium growth inhibitors” (Nature Communications, 2019)

Legend:
C. parvum = test: DNA replication assay (EdU incorporation); format: cell-based, Cryptosporidium parvum; conditions: 10 mM, positive control
Excerpt: Following cell invasion, Cryptosporidium trophozoites grow and multiply to give rise to multinucleated type I meronts (Fig. 3a). The thymidine analog 5-ethynyl-2′-deoxyuridine (EdU) is efficiently incorporated into newly synthesized DNA, and can be detected using click chemistry. We used EdU to measure parasite intracellular DNA replication, as a surrogate for the more complex phenotype of intracellular growth and division. The approach for differentially labeling newly synthesized parasite DNA compared to host cell DNA was to take advantage of the fact that C. parvum replicates more quickly than the nearly confluent host cells. Thus, by adding EdU shortly before egress, it was possible to preferentially label replicating parasites (Fig. 3b, c). DNA staining with Hoechst labeled all of the host and parasite DNA, making it challenging to visualize and quantify parasite DNA. A simple DNA stain would also not distinguish pre-existing DNA from newly synthesized DNA (Fig. 3c). In contrast, EdU labeling only occurred with incorporation into newly synthesized DNA. Incorporated EdU was then easily stained for immunofluorescence and labeled parasites were quantified using high-content microscopy and an NIH ImageJ macro (Fig. 3c, DMSO condition). The […] hydroxyurea (10 mM), a known inhibitor of DNA replication, was used as a positive control for assay validation. […] Compounds with activity in this assay cannot be concluded to specifically target DNA replication, which is a complex phenotype.
Confluent HCT-8 cell monolayers in glass bottom plates were infected with C. parvum, and compounds were added at EC90 following invasion. At 9 h post-infection, 10 µM EdU was added, followed by incubation for another 2 h, and then washing, fixing, and staining for microscopy. […] 40 × dry objective (NA = 0.7); scale = 5 µm. Arrows indicate selected parasites with EdU-labeled DNA. d Quantification of EdU incorporation. […] Data are mean and SD of 2–5 biological replicates.
After incubation of cells with EdU for 2 h, cells were washed 3 times with PBS-D-gal and then fixed with PBS containing 4% PFA. Cells were then permeabilized and stained for EdU using the Click-iT® assay kit (Thermo Fisher Scientific, catalog# C10340) as per the manufacturer’s instructions. Cells were then imaged by focusing on parasites (note that the host cell nuclei are in a different focal plane) using a 40 × dry objective (0.7 NA) and EdU, and lectin numbers quantified using ImageJ software and the custom macro in Supplementary Method 1.

[1] = test system: HCT-8 cell DNA replication; test: Host cell DNA replication (EdU labeling); format: cell-based, human; conditions: 10 mM, positive control

NC(=O)NO [hydroxyurea]
effect on parasite DNA replication (C. parvum): blocked both parasite and HCT-8 cell DNA replication | effect on HCT-8 cell DNA replication [1]: blocked both parasite and HCT-8 cell DNA replication
